These results are taken from patent publication US8114991B2, “Amino-1,3,5-triazines N-substituted with chiral bicyclic radicals, process for their preparation, compositions thereof, and their use as herbicides and plant growth regulators” (Bayer Cropscience AG, priority 2003, dated 2012).

The subject of assay [1] is harmful plants such as Stellaria media, Lolium multiforum, Amaranthus retroflexus, Sinapis alba, Avena sativa and Setaria viridis. The assay can be described thus: Pre-emergence effect on weeds (greenhouse pot test). The note with it: application rate of 1 kg or less of active ingredient per hectare; scored after 3 to 4 weeks by comparison with untreated controls. In kind it is in vivo. The method, boiled down: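 Seeds or rhizome pieces sown in sandy loam; test compounds (wettable powder or emulsion concentrate) applied pre-emergence to soil surface as aqueous suspension/emulsion at various dosages, 600 to 800 l water/ha. Greenhouse; plant/emergence damage scored visually after 3 to 4 weeks versus untreated controls.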

The test system of assay [2] is harmful plants such as Sinapis alba, Echinochloa crus-galli, Lolium multiflorum, Stellaria media, Cyperus iria, Amaranthus retroflexus, Setaria viridis, Avena …. In words: Post-emergence effect on weeds (greenhouse pot test). In kind it is in vivo. The note with it: application rate of 2 kg or less of active ingredient per hectare; treated in the three-leaf stage; scored after approx. 3 to 4 weeks by comparison with untreated controls.

Regarding `CCc1nc(N)nc(N[C@H]2c3cc(C)ccc3C[C@@H]2C)n1` [Compound 7.75], the “pre-emergence control of harmful plants (plant or emergence damage scored visually)” value (“pre-emergence control of harmful plants” below) in assay [1] was “very good pre-emergence control”. The “herbicidal post-emergence activity against harmful plants (scored visually)” value (“herbicidal post-emergence activity” below) in assay [2] is on record as “very good herbicidal post-emergence activity”.

For `CCc1nc(N)nc(N[C@H]2c3ccccc3CC[C@@H]2C)n1` [Compound 7.78], in assay [1], the “pre-emergence control of harmful plants” value is reported as “very good pre-emergence control”. Besides, in assay [2], the “herbicidal post-emergence activity” value is given as “very good herbicidal post-emergence activity”.

As to `C[C@H]1CCc2ccccc2[C@@H]1Nc1nc(N)nc(C(C)(C)F)n1` [Compound 7.203], the “pre-emergence control of harmful plants” value in assay [1] is listed as “very good pre-emergence control”. The “herbicidal post-emergence activity” value in assay [2] is “very good herbicidal post-emergence activity”.

For the compound `C[C@H]1Cc2ccccc2[C@@H]1Nc1nc(N)nc(C(C)(C)F)n1` [Compound 7.228], the “pre-emergence control of harmful plants” value in assay [1] is recorded as “very good pre-emergence control”. For the same compound, the “herbicidal post-emergence activity” value in assay [2] is listed as “very good herbicidal post-emergence activity”.

On to `Cc1ccc2c(c1)[C@H](Nc1nc(N)nc(C(C)(C)F)n1)[C@@H](C)C2` [Compound 7.229], for which the “pre-emergence control of harmful plants” value in assay [1] is on record as “very good pre-emergence control”. Moreover, the “herbicidal post-emergence activity” value in assay [2] is listed as “very good herbicidal post-emergence activity”.

With `Cc1ccc2c(c1)[C@H](Nc1nc(N)nc(CCSC(F)(F)F)n1)[C@@H](C)C2` [Compound 7.238], the “pre-emergence control of harmful plants” value in assay [1] is listed as “very good pre-emergence control”. Moreover, the “herbicidal post-emergence activity” value in assay [2] is recorded as “very good herbicidal post-emergence activity”.

Turning to `C[C@H]1Cc2ccccc2[C@@H]1Nc1nc(N)nc(C(F)(F)F)n1` [Compound 7.239], in assay [1], the “pre-emergence control of harmful plants” value was “very good pre-emergence control”. The “herbicidal post-emergence activity” value in assay [2] is “very good herbicidal post-emergence activity”.

As to `Cc1ccc2c(c1)[C@H](Nc1nc(N)nc(C(F)(F)F)n1)[C@@H](C)C2` [Compound 7.240], the “pre-emergence control of harmful plants” value in assay [1] is reported as “very good pre-emergence control”. For the same compound, the “herbicidal post-emergence activity” value in assay [2] is recorded as “very good herbicidal post-emergence activity”.

As for `C[C@H]1Cc2ccccc2[C@@H]1Nc1nc(N)nc(CCSC(F)(F)F)n1` [Compound 7.241], in assay [1], the “pre-emergence control of harmful plants” value was “very good pre-emergence control”. In addition, in assay [2], the “herbicidal post-emergence activity” value is on record as “very good herbicidal post-emergence activity”.

Take `C[C@H]1Cc2ccccc2[C@@H]1Nc1nc(N)nc(CC#N)n1` [Compound 7.242]: the “pre-emergence control of harmful plants” value in assay [1] is reported as “very good pre-emergence control”. For the same compound, the “herbicidal post-emergence activity” value in assay [2] is “very good herbicidal post-emergence activity”.

Consider `C[C@H]1Cc2ccccc2[C@@H]1Nc1nc(N)nc(C(F)F)n1` [Compound 7.244], for which the “pre-emergence control of harmful plants” value in assay [1] is recorded as “very good pre-emergence control”. Also, the “herbicidal post-emergence activity” value in assay [2] was “very good herbicidal post-emergence activity”.

On to `Cc1ccc2c(c1)[C@H](Nc1nc(C)nc(N)n1)CC2` [Compound 8.2], for which, in assay [1], the “pre-emergence control of harmful plants” value was “very good pre-emergence control”. The “herbicidal post-emergence activity” value in assay [2] is given as “very good herbicidal post-emergence activity”.

`Cc1nc(N)nc(N[C@@H]2CCc3ccc(F)cc32)n1` [Compound 8.3]: the “pre-emergence control of harmful plants” value in assay [1] was “very good pre-emergence control”. Also, in assay [2], the “herbicidal post-emergence activity” value is “very good herbicidal post-emergence activity”.

In the case of `Cc1nc(N)nc(N[C@@H]2CCc3cc(C)c(C)cc32)n1` [Compound 8.7], the “pre-emergence control of harmful plants” value in assay [1] is recorded as “very good pre-emergence control”. Besides, the “herbicidal post-emergence activity” value in assay [2] was “very good herbicidal post-emergence activity”.

Take `Cc1nc(N)nc(N[C@@H]2CCCc3ccccc32)n1` [Compound 8.11]: the “pre-emergence control of harmful plants” value in assay [1] was “very good pre-emergence control”. In assay [2], the “herbicidal post-emergence activity” value is recorded as “very good herbicidal post-emergence activity”.

`Cc1ccc2c(c1)[C@H](Nc1nc(C)nc(N)n1)CCC2` [Compound 8.12]: in assay [1], the “pre-emergence control of harmful plants” value was “very good pre-emergence control”. The “herbicidal post-emergence activity” value in assay [2] is “very good herbicidal post-emergence activity”.

For the compound `Cc1cc(C)c2c(c1)[C@H](Nc1nc(C)nc(N)n1)CCC2` [Compound 8.15], the “pre-emergence control of harmful plants” value in assay [1] is “very good pre-emergence control”. The “herbicidal post-emergence activity” value in assay [2] was “very good herbicidal post-emergence activity”.

Turning to `Cc1ccc2c(c1)[C@H](Nc1nc(C)nc(N)n1)CCO2` [Compound 8.21], in assay [1], the “pre-emergence control of harmful plants” value is given as “very good pre-emergence control”. Also, the “herbicidal post-emergence activity” value in assay [2] is “very good herbicidal post-emergence activity”.

Take `CCc1nc(N)nc(N[C@@H]2CCc3ccccc32)n1` [Compound 8.24]: the “pre-emergence control of harmful plants” value in assay [1] is “very good pre-emergence control”. The “herbicidal post-emergence activity” value in assay [2] was “very good herbicidal post-emergence activity”.

`CCc1nc(N)nc(N[C@@H]2CCc3ccc(C)cc32)n1` [Compound 8.25]: the “pre-emergence control of harmful plants” value in assay [1] is on record as “very good pre-emergence control”. The “herbicidal post-emergence activity” value in assay [2] is given as “very good herbicidal post-emergence activity”.

As to `CCc1nc(N)nc(N[C@@H]2CCc3ccc(F)cc32)n1` [Compound 8.26], in assay [1], the “pre-emergence control of harmful plants” value is “very good pre-emergence control”. In assay [2], the “herbicidal post-emergence activity” value is reported as “very good herbicidal post-emergence activity”.

On to `CCc1nc(N)nc(N[C@@H]2CCCc3ccccc32)n1` [Compound 8.34], for which the “pre-emergence control of harmful plants” value in assay [1] is given as “very good pre-emergence control”. Besides, in assay [2], the “herbicidal post-emergence activity” value was “very good herbicidal post-emergence activity”.

As for `CCc1nc(N)nc(N[C@@H]2CCCc3ccc(C)cc32)n1` [Compound 8.35], the “pre-emergence control of harmful plants” value in assay [1] was “very good pre-emergence control”. Also, in assay [2], the “herbicidal post-emergence activity” value was “very good herbicidal post-emergence activity”.

For the compound `CCc1nc(N)nc(N[C@@H]2CCCc3c(C)cc(C)cc32)n1` [Compound 8.38], the “pre-emergence control of harmful plants” value in assay [1] is reported as “very good pre-emergence control”. Also, in assay [2], the “herbicidal post-emergence activity” value was “very good herbicidal post-emergence activity”.

`CCc1nc(N)nc(N[C@@H]2CCOc3ccc(C)cc32)n1` [Compound 8.44]: the “pre-emergence control of harmful plants” value in assay [1] was “very good pre-emergence control”. For the same compound, the “herbicidal post-emergence activity” value in assay [2] is given as “very good herbicidal post-emergence activity”.

Turning to `CCCc1nc(N)nc(N[C@@H]2CCc3ccc(C)cc32)n1` [Compound 8.48], the “pre-emergence control of harmful plants” value in assay [1] is “very good pre-emergence control”. Moreover, the “herbicidal post-emergence activity” value in assay [2] was “very good herbicidal post-emergence activity”.

Turning to `CCCc1nc(N)nc(N[C@@H]2CCc3ccc(F)cc32)n1` [Compound 8.49], the “pre-emergence control of harmful plants” value in assay [1] is listed as “very good pre-emergence control”. The “herbicidal post-emergence activity” value in assay [2] is “very good herbicidal post-emergence activity”.

`CCCc1nc(N)nc(N[C@@H]2CCCc3ccc(C)cc32)n1` [Compound 8.58]: the “pre-emergence control of harmful plants” value in assay [1] is “very good pre-emergence control”. For the same compound, the “herbicidal post-emergence activity” value in assay [2] is “very good herbicidal post-emergence activity”.

As to `CCCc1nc(N)nc(N[C@@H]2CCCc3c(C)cc(C)cc32)n1` [Compound 8.61], the “pre-emergence control of harmful plants” value in assay [1] was “very good pre-emergence control”. Further, the “herbicidal post-emergence activity” value in assay [2] is on record as “very good herbicidal post-emergence activity”.

On to `Cc1ccc2c(c1)[C@H](Nc1nc(N)nc(C(C)C)n1)CC2` [Compound 8.67], for which the “pre-emergence control of harmful plants” value in assay [1] is listed as “very good pre-emergence control”. Besides, the “herbicidal post-emergence activity” value in assay [2] is “very good herbicidal post-emergence activity”.

For `CC(C)c1nc(N)nc(N[C@@H]2CCc3ccc(F)cc32)n1` [Compound 8.68], in assay [1], the “pre-emergence control of harmful plants” value is “very good pre-emergence control”. Besides, the “herbicidal post-emergence activity” value in assay [2] is recorded as “very good herbicidal post-emergence activity”.

As to `Cc1ccc2c(c1)[C@H](Nc1nc(N)nc(C(C)C)n1)CCC2` [Compound 8.71], in assay [1], the “pre-emergence control of harmful plants” value was “very good pre-emergence control”. Besides, the “herbicidal post-emergence activity” value in assay [2] is given as “very good herbicidal post-emergence activity”.

For `Cc1ccc2c(c1)[C@H](Nc1nc(N)nc(C(C)C)n1)CCO2` [Compound 8.75], the “pre-emergence control of harmful plants” value in assay [1] is recorded as “very good pre-emergence control”. Further, the “herbicidal post-emergence activity” value in assay [2] was “very good herbicidal post-emergence activity”.

`Cc1ccc2c(c1)[C@H](Nc1nc(N)nc(C(C)(Cl)Cl)n1)CC2` [Compound 8.79]: in assay [1], the “pre-emergence control of harmful plants” value was “very good pre-emergence control”. For the same compound, the “herbicidal post-emergence activity” value in assay [2] was “very good herbicidal post-emergence activity”.
